{
  "source": "patent US20100215737A1",
  "about": "“COMBINATION PHARMACEUTICAL COMPOSITIONS” (priority 2007, published 2010)",
  "origin": "cited, not measured here",
  "key": {"[1]": {"system": "subventricular zone and dentate gyrus cells", "conditions": "young adult rats"}, "[2]": {"system": "endothelial nitric oxide synthase (eNOS)", "conditions": "mouse, in vivo"}, "[3]": {"conditions": "marketed formulations"}, "APP holoprotein and mRNA": {"system": "APP holoprotein and mRNA", "conditions": "50 microM"}, "CYP": {"system": "CYP", "conditions": "concentration of up to 1 μM"}, "peripheral nerve damage": {"system": "peripheral nerve damage", "conditions": "after peripheral nerve damage"}, "[4]": {"system": "middle cerebral artery occlusion", "conditions": "single iv bolus 0.1 mg/kg immediately or 3 h after occlusion"}, "[5]": {"system": "middle cerebral artery occlusion (MCO)", "conditions": "0.32 to 1.0 mg/kg iv immediately after occlusion"}, "[6]": {"system": "mdr-1a knockout and wild type mice", "conditions": "mdr-1a knockout vs wild type mice, oral"}, "[7]": {"system": "permanent and transient focal ischemia", "conditions": ">0.1 mg/kg iv immediately after onset of ischemia"}, "global ischemic insult": {"system": "global ischemic insult", "conditions": "mice"}, "[8]": {"system": "transient global ischemia", "conditions": "1 mg/kg iv immediately after reperfusion"}, "[9]": {"system": "ischemic damage in the rat cortex", "conditions": "in vivo"}, "[10]": {"conditions": "human, in vivo"}, "[11]": {"conditions": "relative to small intestine"}, "PgP [12]": {"target": "T1, PgP (Homo sapiens, UniProt P08183)", "T1 construct": "PgP is found in the luminal plasma membrane of brain capillary endothelial cells (BCEC); host or cells: blood brain barrier / primary cultured BCEC", "T1 sequence (P08183 whole entry)": "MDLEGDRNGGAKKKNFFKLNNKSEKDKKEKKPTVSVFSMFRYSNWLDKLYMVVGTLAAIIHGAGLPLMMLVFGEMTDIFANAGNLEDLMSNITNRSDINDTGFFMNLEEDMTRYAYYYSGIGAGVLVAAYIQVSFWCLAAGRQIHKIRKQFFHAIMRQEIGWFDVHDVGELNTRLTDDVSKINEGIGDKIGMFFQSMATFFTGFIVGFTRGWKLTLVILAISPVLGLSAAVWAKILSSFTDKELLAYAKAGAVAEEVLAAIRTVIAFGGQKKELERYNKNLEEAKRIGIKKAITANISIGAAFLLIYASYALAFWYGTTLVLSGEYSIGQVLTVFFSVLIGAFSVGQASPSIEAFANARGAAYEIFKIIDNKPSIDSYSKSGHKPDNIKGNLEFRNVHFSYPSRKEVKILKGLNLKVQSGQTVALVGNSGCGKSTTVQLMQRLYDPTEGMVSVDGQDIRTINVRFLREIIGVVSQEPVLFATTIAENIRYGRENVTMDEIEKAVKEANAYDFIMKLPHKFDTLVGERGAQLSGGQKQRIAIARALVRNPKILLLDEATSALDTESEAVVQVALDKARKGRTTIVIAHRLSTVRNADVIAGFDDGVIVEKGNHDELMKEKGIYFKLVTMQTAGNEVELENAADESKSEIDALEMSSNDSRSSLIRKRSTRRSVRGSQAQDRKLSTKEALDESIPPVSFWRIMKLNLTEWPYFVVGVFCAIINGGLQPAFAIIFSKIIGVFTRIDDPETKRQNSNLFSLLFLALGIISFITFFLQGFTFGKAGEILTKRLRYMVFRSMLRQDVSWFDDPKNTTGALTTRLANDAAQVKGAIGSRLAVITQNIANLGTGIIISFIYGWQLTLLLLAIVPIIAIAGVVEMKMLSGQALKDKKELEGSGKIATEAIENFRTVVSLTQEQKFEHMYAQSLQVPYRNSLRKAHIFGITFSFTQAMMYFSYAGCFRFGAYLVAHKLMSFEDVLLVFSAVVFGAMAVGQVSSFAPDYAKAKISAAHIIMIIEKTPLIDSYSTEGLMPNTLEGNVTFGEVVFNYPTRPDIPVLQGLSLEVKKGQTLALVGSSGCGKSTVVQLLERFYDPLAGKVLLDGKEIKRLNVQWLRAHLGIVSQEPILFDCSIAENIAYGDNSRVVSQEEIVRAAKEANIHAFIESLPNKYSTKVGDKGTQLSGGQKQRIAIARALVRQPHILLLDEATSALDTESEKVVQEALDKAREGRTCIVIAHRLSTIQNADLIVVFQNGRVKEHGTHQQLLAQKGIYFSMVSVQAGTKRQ"}, "transient focal ischemia": {"system": "transient focal ischemia", "conditions": "in vivo"}, "PgP [13]": {"target": "T1, PgP", "conditions": "dose-depended effect"}},
  "data": [
    {"smiles": "NCCN(CCN)/[N+]([O-])=N/O", "note": "[DETA/NONOate, (Z)-1-[N-(2-aminoethyl)-N-(2-ammonioethyl)amino]diazen-1-ium-1,2-diolate]", "values": [
      {"measurement": "cell proliferation and migration in the subventricular zone and the dentate gyrus", "setting": "[1]", "value": "significantly increases cell proliferation and migration"}
    ]},
    {"smiles": "CC[C@H](C)C(=O)O[C@H]1CCC=C2C=C[C@H](C)[C@H](CC[C@@H]3C[C@@H](O)CC(=O)O3)[C@H]21", "note": "[Mevastatin]", "values": [
      {"measurement": "cerebral blood flow (CBF)", "setting": "[2]", "value": "augmented absolute CBF"},
      {"measurement": "eNOS expression", "setting": "[2]", "value": "increase in eNOS mRNA and protein levels"}
    ]},
    {"smiles": "COCCOC(=O)C1=C(C)NC(C)=C(C(=O)OC(C)C)C1c1cccc([N+](=O)[O-])c1", "note": "(stereo not drawn) [Nimodipine]", "values": [
      {"measurement": "bioavailability after oral administration, average", "setting": "[3]", "value": "approximately 25%"},
      {"measurement": "solubility in water", "value": "practically insoluble in water"}
    ]},
    {"smiles": "C=CC[C@@H]1/C=C(\\C)C[C@H](C)C[C@H](OC)[C@H]2O[C@@](O)(C(=O)C(=O)N3CCCC[C@H]3C(=O)O[C@H](/C(C)=C/[C@@H]3CC[C@@H](O)[C@H](OC)C3)[C@H](C)[C@@H](O)CC1=O)[C@H](C)C[C@@H]2OC", "note": "[Tacrolimus]", "values": [
      {"measurement": "increases in APP holoprotein and mRNA caused by PGE2 treatment", "setting": "APP holoprotein and mRNA", "value": "completely inhibited"},
      {"measurement": "effect on CYP activities", "setting": "CYP", "value": "little detectable effect"},
      {"measurement": "increase of axonal growth", "setting": "peripheral nerve damage", "value": 20, "unit": "%"},
      {"measurement": "cortical brain damage", "setting": "[4]", "value": "reducing cortical brain damage"},
      {"measurement": "reductions of cerebral metabolic rate of oxygen and oxygen extraction function", "setting": "[4]", "value": "significantly attenuated"},
      {"measurement": "infarction area", "setting": "[5]", "value": "dose-dependently reduced the infarction area"},
      {"measurement": "blood concentrations", "setting": "[6]", "value": "significantly higher"},
      {"measurement": "concentration in brain tissue, fold higher", "setting": "[6]", "value": 10, "unit": "fold"},
      {"measurement": "total clearance, reduction", "setting": "[6]", "value": 66, "unit": "%"},
      {"measurement": "ischemic brain damage", "setting": "[7]", "value": "significant reduction in ischemic brain damage"},
      {"measurement": "neuroprotective effect, drug alone", "setting": "MCO; 1 mg/kg iv alone, 1, 2 or 3 h after occlusion", "value": "neuroprotective effects when administered alone up to 1 h following occlusion"},
      {"measurement": "brain damage, combination with rt-PA", "setting": "MCO; tacrolimus 1 mg/kg plus same dose of rt-PA iv", "value": "significant reduction in brain damage was observed at up to 2 h following occlusion"},
      {"measurement": "reduction of hippocampal damage", "setting": "global ischemic insult", "value": "more than 80%"},
      {"measurement": "neuroprotective effect", "setting": "[8]", "value": "long-lasting neuroprotective effects"},
      {"measurement": "reduction of ischemic damage in the rat cortex", "setting": "[9]", "value": "up to 70%"},
      {"measurement": "incidence of diabetes", "setting": "[10]", "value": "20 % of all patients"},
      {"measurement": "ileum and colonic absorption efficiency", "setting": "[11]", "value": "half that observed for the small intestine"},
      {"measurement": "affinity for PgP", "setting": "PgP [12]", "value": "~0.1", "unit": "µM"},
      {"measurement": "peptidyl-prolyl isomerase activity", "setting": "transient focal ischemia", "value": "blocked the increase in peptidyl-prolyl isomerase activity"},
      {"measurement": "reduction of infarct size", "setting": "transient focal ischemia", "value": 53, "unit": "%"}
    ]},
    {"smiles": "O=C(O)[C@H]1O[C@@H](Oc2cc3oc(-c4ccccc4)cc(=O)c3c(O)c2O)[C@H](O)[C@@H](O)[C@@H]1O", "note": "[baicalin]", "values": [
      {"measurement": "transport of nimodipine across the BBB", "setting": "PgP [13]", "value": "increased the transport of nimodipine across the BBB"}
    ]},
    {"smiles": "COc1ccc2cc3[n+](cc2c1OC)CCc1cc2c(cc1-3)OCO2", "note": "[berberine]", "values": [
      {"measurement": "transport of nimodipine across the BBB", "setting": "PgP [13]", "value": "increased the transport of nimodipine across the BBB"}
    ]}
  ]
}
